Measured values from patent publication US20240150339A1, “Compounds and Their Use as PDE4 Activators” (Mironid Limited, priority 2021, published 2024).

Experiments:
[1] = tested on: PTH-induced cAMP elevation in urine; assay: In vivo model of hyperparathyroidism: PTH-induced cAMP elevation in urine in the anaesthetised rat; conditions: i.v. infusion, PTH challenge, urine collected from 90 to 120 min, result in words
Description: Within the kidney, the binding of parathyroid hormone (PTH) to PTH receptors results in the Gas-mediated elevation of intracellular cAMP. This increase of intracellular cAMP results in extrusion of cAMP to the urine (Yates et al., J Clin Invest 81: 932-938, 1988). This experiment is based upon a modified Ellsworth-Howard assay (Kruse, K. and Kracht, U., European Journal of Pediatrics 146: 373-377, 1987) and conducted in anaesthetized rats. In this experiment, rats were anaesthetized using isoflurane and catheterised to allow the collection of urine from the bladder. After an initial stabilization period, test compounds were administered by i.v. infusion (modelled to steady state) from time 0-120 min. PTH challenge infusion (33 ug/kg/hour) was started after 60 min of test compound infusion and sustained for one hour (60-120 min). Urine collection was conducted in 30-minute periods. Urine cAMP levels were assessed by ELISA (R&D systems). Urine samples were prepared for analysis as per the manufacturer's instructions. A standard curve for cAMP was assayed for each experiment and samples were assessed using a standard dilution range of 1:2, 1:4, 1:8 and 1:16, ensuring that the resulting data remained on the linear portion of the standard curve. […] Urine cAMP concentration remained below 50,000 pmol/mL. […]

[2] = biological target: T1, PDE4C3 (Homo sapiens, UniProt Q08493); assay: PDE assay, activation of full-length human PDE4C3 long form ([3H]cAMP radio-assay); type: biochemical; conditions: 30 μM test compound; mean % increase in counts over basal activity
T1 construct: Using Full-Length Human PDE4 Isoforms: Long Forms PDE4D5, PDE4C3, PDE4B1 and Short Form PDE4B2; made in house; host or cells: HEK 293 transfected with pcDNA3.1 or pDEST PDE4 expression vector; cytosol fraction of the lysate by analogy to PDE4D5
T1 sequence (Q08493 1-680 isoform Q08493-3): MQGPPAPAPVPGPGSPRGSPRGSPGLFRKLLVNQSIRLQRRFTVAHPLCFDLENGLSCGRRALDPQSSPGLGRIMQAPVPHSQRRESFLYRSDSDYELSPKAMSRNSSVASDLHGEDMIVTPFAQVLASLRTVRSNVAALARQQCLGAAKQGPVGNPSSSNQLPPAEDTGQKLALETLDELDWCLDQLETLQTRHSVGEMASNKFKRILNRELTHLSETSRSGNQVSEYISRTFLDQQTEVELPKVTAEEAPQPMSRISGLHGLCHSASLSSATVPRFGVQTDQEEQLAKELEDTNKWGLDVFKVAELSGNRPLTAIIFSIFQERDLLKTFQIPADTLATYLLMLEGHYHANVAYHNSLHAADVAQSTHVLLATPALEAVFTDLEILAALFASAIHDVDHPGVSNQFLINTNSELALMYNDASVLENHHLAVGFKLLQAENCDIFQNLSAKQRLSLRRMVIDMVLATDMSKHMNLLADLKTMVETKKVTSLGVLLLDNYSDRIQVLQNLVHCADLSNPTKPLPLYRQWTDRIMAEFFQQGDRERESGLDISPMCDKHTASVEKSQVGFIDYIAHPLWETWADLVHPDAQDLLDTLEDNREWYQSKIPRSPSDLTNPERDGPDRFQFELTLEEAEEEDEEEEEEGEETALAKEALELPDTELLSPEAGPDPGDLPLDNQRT
Description: Experiment 1: Measurement of Modulation of Enzyme Activity by PDE4 Long Form Activators of the Present Invention Using Full-Length Human PDE4 Isoforms: Long Forms PDE4D5, PDE4C3, PDE4B1 and Short Form PDE4B2
(Marchmont, R. J. and Houslay, M. D. Biochem. J. 187: 381-92, 1980)
For transient transfection of exogenous PDE4 long isoforms, HEK 293 cells were transfected with pcDNA3.1 or pDEST™ PDE4 expression vectors using Lipofectamine LTX/Plus reagent (Invitrogen) as outlined by the manufacturer. […]
HEK-PDE4D5 cells were seeded out in 100 mm plates and incubated at 37° C. in an atmosphere of 5% CO2, 95% air. Cell lysates were prepared using KHEM buffer [50 mM KCl, 10 mM EGTA, 50 mM HEPES (pH 7.2), 1.92 mM MgCl2].
To prepare the cell lysates, the 100 mm plates containing the cells were placed on ice and washed with ice-cold PBS (phosphate buffered saline, pH 7.4). KHEM buffer (500 μl) was added to the cells. Cells were then scraped off the plate and triturated using a needle (BD Microlance™ 0.8, 40 mm). The lysed cells were then centrifuged at 2000 rpm for 10 minutes to remove cell debris and the supernatant (cell lysate containing recombinant PDE4D5) was transferred to a fresh tube and kept on ice.
The cell lysate containing recombinant PDE4D5 was transferred into a centrifuge tube and placed into an ultracentrifuge (BECKMAN COULTER) and spun at high speed (100,000 g) for 30 minutes at 4° C. The cytosol fraction was then collected and its protein amount determined using a BCA protein assay.
PDE assays were performed in thin walled V-bottomed 96-well plates. The assays were performed at a final concentration of 10 mM Tris/5 mM MgCl2 μlus PDE4D5 cell lysate cytosol fraction, containing over-expressed PDE4D5, with and without test compound. The lysate/compound mix were incubated together for 15 min at room temperature on an orbital shaker prior to addition of [^3H] cAMP (final concentration 1 μM [^3H] cAMP; Perkin Elmer) to a final volume of 50 μl per reaction. The reactions were then incubated for 10 minutes at 30° C., terminated by heating for 2 min at 95° C. and allowed to cool. Snake venom (12.5 μl of 1 mg/ml; Crotalus atrox, Sigma) was then added and the plates were agitated and incubated for a further 15 minutes at 30° C. Dowex ion exchange resin (Sigma, chloride form, 200-400 mesh; 200 μl; prepared as a 1:1 Dowex: water stock, thoroughly re-suspended and diluted 2:1 with ethanol) was then added to each well and the plates incubated for 15 min at room temperature on an orbital shaker ensuring sufficient agitation for resin suspension (550 RPM). The reaction mixture was then transferred to a 96 well filter plate (Millipore; […] pore size) and filtered into a receiving 96-well plate to remove the dowex suspension. 30 μL of the filtered solution was then transferred to the wells of an Opti-plate (Perkin Elmer) 96 well assay plate and 120 μl of Microscint 40 scintillation fluid was added. The plate was then placed on an orbital shaker for 10 min at high speed (900 RPM) to mix the sample with scintillation fluid prior to quantitation using a plate based scintillation counter (Top-Count).
The % increase in counts in the presence of test compound at a particular concentration indicates the % increase in enzyme activity at that concentration.

[3] = biological target: T2, PDE4D5 (Homo sapiens, UniProt Q08499); assay: PDE assay, activation of full-length human PDE4D5 long form ([3H]cAMP radio-assay); type: biochemical; conditions: 30 μM test compound; mean % increase in counts over basal activity
T2 construct: Using Full-Length Human PDE4 Isoforms: Long Forms PDE4D5, PDE4C3, PDE4B1 and Short Form PDE4B2; made in house; cytosol fraction of the cell lysate, not purified
T2 sequence (Q08499 1-745 isoform Q08499-6): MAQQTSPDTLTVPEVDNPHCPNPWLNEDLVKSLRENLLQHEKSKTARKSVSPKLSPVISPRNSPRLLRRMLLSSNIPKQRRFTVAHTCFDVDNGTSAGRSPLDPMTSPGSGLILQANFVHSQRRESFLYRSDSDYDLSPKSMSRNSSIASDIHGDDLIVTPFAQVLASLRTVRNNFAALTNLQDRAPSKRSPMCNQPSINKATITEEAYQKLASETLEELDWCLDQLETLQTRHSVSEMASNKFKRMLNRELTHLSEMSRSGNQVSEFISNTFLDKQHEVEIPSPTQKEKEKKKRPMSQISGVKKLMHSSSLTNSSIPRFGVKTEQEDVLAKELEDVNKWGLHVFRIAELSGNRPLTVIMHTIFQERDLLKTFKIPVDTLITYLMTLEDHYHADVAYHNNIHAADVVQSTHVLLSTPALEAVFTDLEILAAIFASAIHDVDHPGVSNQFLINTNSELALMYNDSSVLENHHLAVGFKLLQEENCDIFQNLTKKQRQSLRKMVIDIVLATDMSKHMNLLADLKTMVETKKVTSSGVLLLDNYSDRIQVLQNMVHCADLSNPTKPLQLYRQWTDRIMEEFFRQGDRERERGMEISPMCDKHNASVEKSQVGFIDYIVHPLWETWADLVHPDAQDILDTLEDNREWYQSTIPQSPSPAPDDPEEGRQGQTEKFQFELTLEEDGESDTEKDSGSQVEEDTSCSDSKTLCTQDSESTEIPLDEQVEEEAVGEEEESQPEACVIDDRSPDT
Method in brief: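 Cytosol (100,000 g) from HEK293 cells overexpressing full-length human PDE4 was preincubated with compound for 15 min at room temperature in 10 mM Tris/5 mM MgCl2. Reaction ran with 1 μM [3H]cAMP for 10 min at 30° C, then snake venom conversion, Dowex separation and scintillation counting; activity reported as % increase.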

Cc1ncccc1-c1nc2ccc(C(=O)N[C@H]3CCOc4ccccc43)cc2s1 [Example 7, (S)-N-(chroman-4-yl)-2-(2-methylpyridin-3-yl)benzo[d]thiazole-6-carboxamide]
Inhibition of PTH-induced cAMP elevation in rat urine (FIG. 3) [1]: inhibition
activation at 30 µM [2]: 105%
activation at 30 µM [3]: 109%
